Data from the NIST ThermoML archive (doi:10.1016/j.jct.2017.07.040).

Test: mn = molality of the nth substance listed, in mol/kg
Settings: 101 kPa, Liquid; for viscosity: Capillary tube (Ostwald / Ubbelohde) method; for speed of sound: Frequency=6 MHz, Linear variable-path acoustic interferometer; for mass density: Vibrating tube method

N[C@@H](Cc1c[nH]cn1)C(=O)O [L-histidine] + O
Settings	mass density [kg/m3]	speed of sound [m/s]	viscosity [mPa·s]
293.15 K, m1 = 0.01	998.806	1483.9	1.009
293.15 K, m1 = 0.03	999.974	1485.7	1.016
293.15 K, m1 = 0.05	1001.14	1487.5	1.022
293.15 K, m1 = 0.07	1002.32	1489.3	1.028
293.15 K, m1 = 0.09	1003.5	1491.1	1.034
293.15 K, m1 = 0.11	1004.68	1492.8	1.04
298.15 K, m1 = 0.01	997.635	1498.2	0.8956
298.15 K, m1 = 0.03	998.775	1500	0.9014
298.15 K, m1 = 0.05	999.914	1501.7	0.9061
298.15 K, m1 = 0.07	1001.05	1503.2	0.9107
298.15 K, m1 = 0.09	1002.19	1505	0.9156
298.15 K, m1 = 0.11	1003.33	1506.9	0.9197
303.15 K, m1 = 0.01	996.232	1510.3	0.8015
303.15 K, m1 = 0.03	997.346	1512	0.8061
303.15 K, m1 = 0.05	998.458	1513.7	0.8103
303.15 K, m1 = 0.07	999.567	1515.4	0.8143
303.15 K, m1 = 0.09	1000.68	1517	0.8178
303.15 K, m1 = 0.11	1001.79	1518.7	0.8217
308.15 K, m1 = 0.01	994.608	1521	0.7223
308.15 K, m1 = 0.03	995.696	1522.7	0.7259
308.15 K, m1 = 0.05	996.785	1524.3	0.7292
308.15 K, m1 = 0.07	997.874	1525.9	0.7323
308.15 K, m1 = 0.09	998.961	1527.5	0.7356
308.15 K, m1 = 0.11	1000.05	1529.1	0.7389
313.15 K, m1 = 0.01	992.782	1530.1	0.6553
313.15 K, m1 = 0.03	993.848	1531.7	0.6584
313.15 K, m1 = 0.05	994.918	1533.2	0.6613
313.15 K, m1 = 0.07	995.988	1534.8	0.6638
313.15 K, m1 = 0.09	997.06	1536.3	0.6669
313.15 K, m1 = 0.11	998.13	1537.8	0.6692

O [water] + N[C@@H](Cc1c[nH]cn1)C(=O)O
m2 = 0
Settings	mass density [kg/m3]	speed of sound [m/s]	viscosity [mPa·s]
293.15 K	–	–	1.002
298.15 K	–	–	0.8903
303.15 K	–	–	0.7973
308.15 K	994.063	–	0.719
313.15 K	–	1529.3	0.6526
